Assay [1] addresses Recombinant Human NF-kappaB-Inducing Kinase (NIK/MAP3K14) (Homo sapiens, UniProt Q99558). As to the kind of experiment: Inhibition of auto-phosphorylation of recombinant human NIK/MAP3K14 activity (AlphaScreen). In kind it is biochemical. As to conditions: 5 μM ATP, 1 nM NIK, average if tested more than once. The gist of the method: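 GST-tagged NIK (1 nM) auto-phosphorylation with 5 μM ATP, 2 h at 25 °C, pH 7.5 Tris buffer, 0.7% DMSO; stopped with anti-phospho-IKK Ser176/180 antibody and read by AlphaScreen. Signal normalized to full-activity and no-enzyme/no-ATP controls; IC50 from sigmoidal fit of % inhibition vs log concentration.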
A general note: Bead proximity is the source of the signal in Alpha formats.

Assay [2] deals with p-IKKa levels in L363 (NIK translocated multiple myeloma) cells. As to the kind of experiment: Effect of compounds on p-IKKa levels in L363 (NIK translocated multiple myeloma) cells (AlphaLISA SureFire Ultra p-IKKa Ser176/180). Format: cell-based, human. The conditions noted are these: average if tested more than once, read-out: Assay 2 IC50. An outline of the steps: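 L363 multiple myeloma cells, BAFF-stimulated overnight (250 ng/ml), then 6 h at 37 °C with compound (11-point 1:3 series, 0.3% DMSO) plus BAFF and 10 μM MG132. p-IKKa Ser176/180 read by AlphaLISA SureFire Ultra; IC50 from sigmoidal fit normalised to stimulated and unstimulated controls.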

The mark [3] stands for this setting: Homo sapiens, L-363, p-IKKa levels in L363 cells.

Read-outs that look alike come from different tables or passages of the source. Some results are limits rather than exact numbers.

Recombinant Human NF-kappaB-Inducing Kinase (NIK/MAP3K14), sequence (Q99558 whole entry): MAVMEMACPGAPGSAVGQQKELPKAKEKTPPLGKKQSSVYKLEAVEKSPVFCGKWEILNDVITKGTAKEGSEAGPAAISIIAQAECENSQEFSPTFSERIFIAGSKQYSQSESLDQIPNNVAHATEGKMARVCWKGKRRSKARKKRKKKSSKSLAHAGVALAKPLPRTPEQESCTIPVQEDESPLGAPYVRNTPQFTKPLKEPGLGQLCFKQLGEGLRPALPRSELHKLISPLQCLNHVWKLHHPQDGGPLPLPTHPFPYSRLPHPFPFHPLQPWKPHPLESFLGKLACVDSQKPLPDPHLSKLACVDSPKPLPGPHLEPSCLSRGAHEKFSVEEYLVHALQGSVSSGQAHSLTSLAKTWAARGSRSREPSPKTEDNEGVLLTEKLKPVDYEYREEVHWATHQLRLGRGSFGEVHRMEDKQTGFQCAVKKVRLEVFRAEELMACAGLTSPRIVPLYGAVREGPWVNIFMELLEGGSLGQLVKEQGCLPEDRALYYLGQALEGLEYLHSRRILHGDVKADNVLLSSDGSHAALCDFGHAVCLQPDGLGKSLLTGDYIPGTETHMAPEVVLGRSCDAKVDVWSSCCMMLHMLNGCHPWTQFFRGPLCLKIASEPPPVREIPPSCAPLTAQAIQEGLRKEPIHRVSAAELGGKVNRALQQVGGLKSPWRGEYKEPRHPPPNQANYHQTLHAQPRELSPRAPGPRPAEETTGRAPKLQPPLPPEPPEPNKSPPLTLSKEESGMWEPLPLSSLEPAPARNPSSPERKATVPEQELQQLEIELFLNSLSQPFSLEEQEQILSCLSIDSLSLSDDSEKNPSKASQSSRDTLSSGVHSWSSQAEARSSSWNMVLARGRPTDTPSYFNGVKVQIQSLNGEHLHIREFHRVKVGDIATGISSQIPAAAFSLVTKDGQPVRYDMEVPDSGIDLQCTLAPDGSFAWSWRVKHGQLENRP

Broadly, the IC50 is the concentration that gives 50% inhibition. Consider `COCCOc1nn(CC(F)F)cc1Nc1nccc(-c2csc(-c3cccc([C@]4(O)CCN(C)C4=O)c3)n2)n1` [Example 11, (R)-3-(3-(4-(2-((1-(2,2-Difluoroethyl)-3-(2-methoxyethoxy)-1H-pyrazol-4-yl)amino)pyrimidin-4-yl)thiazol-2-yl)phenyl)-3-hydroxy-1-methylpyrrolidin-2-one], for which the IC50 in assay [1] and in assay [2] (setting [3]) was below 0.1 µM each time.

`CC(C)n1nccc1Nc1nccc(-c2csc(-c3cccc([C@]4(O)CCN(C)C4=O)c3)n2)n1` [Example 66, (R)-3-hydroxy-3-(3-(4-(2-((1-isopropyl-1H-pyrazol-5-yl)amino)pyrimidin-4-yl)thiazol-2-yl)phenyl)-1-methylpyrrolidin-2-one]: the IC50 in assay [1] is 0.1 to 0.5 µM; in assay [2] (setting [3]), above 0.501 µM.

Take `CN1CC[C@@](O)(c2cccc(-c3nc(-c4ccnc(Nc5cnn6c5NCCC6)n4)cs3)c2)C1=O` [Example 54, (R)-3-hydroxy-1-methyl-3-(3-(4-(2-((4,5,6,7-tetrahydropyrazolo[1,5-a]pyrimidin-3-yl)amino)pyrimidin-4-yl)thiazol-2-yl)phenyl)pyrrolidin-2-one]: the IC50 in assay [1] is below 0.1 µM; in assay [2] (setting [3]), 0.1 to 0.5 µM.

Regarding `C[C@@H](Nc1nccc(-c2nc(-c3cc([C@]4(O)CCN(C)C4=O)ccn3)cs2)n1)c1ccn(C)n1` (single isomer, unassigned) [Example 157, (R)-3-hydroxy-1-methyl-3-(2-(2-(2-(((R)-1-(1-methyl-1H-pyrazol-3-yl)ethyl)amino)pyrimidin-4-yl)thiazol-4-yl)pyridin-4-yl)pyrrolidin-2-one or (S)-3-hydroxy-1-methyl-3-(2-(2-(2-(((R)-1-(1-methyl-1H-pyrazol-3-yl)ethyl)amino)pyrimidin-4-yl)thiazol-4-yl)pyridin-4-yl)pyrrolidin-2-one], the IC50 is 0.1 to 0.5 µM in assay [1] and above 0.501 µM in assay [2] (setting [3]).

Take `CN1CC[C@@](O)(c2cccc(-c3nc(-c4ccnc(NC5CCc6cccnc65)n4)cs3)c2)C1=O` (stereo partly drawn) [Example 225]: the IC50 was 0.1 to 0.5 µM in assay [1] and above 0.501 µM in assay [2] (setting [3]).

On to `CC(Nc1nccc(-c2csc(-c3cccc([C@]4(O)CCN(C)C4=O)c3)n2)n1)c1cnn(C)c1` (stereo partly drawn) [Example 121, (R)-3-hydroxy-1-methyl-3-(3-(4-(2-(((R,S)-1-(1-methyl-1H-pyrazol-4-yl)ethyl)amino)pyrimidin-4-yl)thiazol-2-yl)phenyl)pyrrolidin-2-one], for which the figures for the IC50 in assay [1] and in assay [2] (setting [3]) were below 0.1 µM and 0.1 to 0.5 µM, respectively.

Consider `CN1CC[C@@](O)(c2cccc(-c3nc(-c4ccnc(NCCC(F)(F)F)n4)cs3)c2)C1=O` [Example 236], for which the IC50 is below 0.1 µM in assay [1] and above 0.501 µM in assay [2] (setting [3]).

Consider `CN1CC[C@@](O)(c2cccc(-c3nc(-c4ccnc(NCC5(O)CC5)n4)cs3)c2)C1=O` [Example 240], for which the IC50 in assay [1] is 0.1 to 0.5 µM; in assay [2] (setting [3]), above 0.501 µM.

Turning to `CN1CC[C@@](O)(c2cccc(-c3nc(-c4ccnc(N[C@@H]5CCC[C@H]5O)n4)cs3)c2)C1=O` [Example 216], the IC50 in assay [1] is 0.1 to 0.5 µM; in assay [2] (setting [3]), above 0.501 µM.

On to `CC(Nc1nccc(-c2csc(-c3cccc([C@]4(O)CCN(C)C4=O)c3)n2)n1)c1ncccn1` (stereo partly drawn) [Example 207], for which the IC50 was below 0.1 µM in assay [1] and above 0.501 µM in assay [2] (setting [3]).

Take `CN(C)C(=O)Cn1ccc(Nc2nccc(-c3csc(-c4cccc([C@]5(O)CCN(C)C5=O)c4)n3)n2)n1` [Example 262, (R)-2-(3-((4-(2-(3-(3-Hydroxy-1-methyl-2-oxopyrrolidin-3-yl)phenyl)thiazol-4-yl)pyrimidin-2-yl)amino)-1H-pyrazol-1-y)-N,N-dimethylacetamide]: the IC50 in assay [1] is below 0.1 µM; in assay [2] (setting [3]), above 0.501 µM.

Consider `Cc1nn(C(F)F)cc1Nc1nccc(-c2csc(-c3cccc([C@]4(O)CCN(C)C4=O)c3)n2)n1` [Example 140, (R)-3-(3-(4-(2-((1-(difluoromethyl)-3-methyl-1H-pyrazol-4-yl)amino)pyrimidin-4-yl)thiazol-2-yl)phenyl)-3-hydroxy-1-methylpyrrolidin-2-one], for which the IC50 in assay [1] and in assay [2] (setting [3]) was below 0.1 µM in each case.

In the case of “(trans)-3-hydroxy-1-methyl-3-(3-(4-(2-((1-methyl-1H-pyrazol-3-yl)amino)pyrimidin-4-yl)thiazol-2-yl)phenyl)-5-(trifluoromethyl)pyrrolidin-2-one [Example 37]”, the IC50 in assay [1] and in assay [2] (p-IKKa levels in L363 cells) was above 0.501 µM throughout.

Turning to `CN1CC[C@@](O)(c2ccnc(-c3csc(-c4ccnc(Nc5cnn(C)c5)n4)n3)c2)C1=O` (single isomer, unassigned) [Example 151], the half-maximal inhibitory concentration (IC50) in assay [1] and in assay [2] (setting [3]) was below 0.1 µM each time.

With `CN1CC[C@@](O)(c2cccc(-c3nc(-c4ccnc(N)n4)cs3)c2)C1=O` [Example 6, (R)-3-(3-(4-(2-Aminopyrimidin-4-yl)thiazol-2-yl)phenyl)-3-hydroxy-1-methylpyrrolidin-2-one], the IC50 in assay [1] was 0.1 to 0.5 µM; in assay [2] (setting [3]), above 0.501 µM.

In the case of `CN1CC[C@@](O)(c2cccc(-c3nc(-c4ccnc(Nc5cc(C(F)(F)F)n(C)n5)n4)cs3)c2)C1=O` [Example 256, (R)-3-Hydroxy-1-methyl-3-(3-(4-(2-((1-methyl-5-(trifluoromethyl)-1H-pyrazol-3-yl)amino)pyrimidin-4-yl)thiazol-2-yl)phenyl)pyrrolidin-2-one], the values for the IC50 in assay [1] and in assay [2] (setting [3]) were below 0.1 µM and above 0.501 µM, respectively.

As for `CN1CC[C@@](O)(c2cccc(-c3csc(-c4ccnc(Nc5ccn(C)n5)n4)n3)c2)C1=O` [Example 3, (R)-3-hydroxy-1-methyl-3-(3-(2-(2-((1-methyl-1H-pyrazol-3-yl)amino)pyrimidin-4-yl)thiazol-4-yl)phenyl)pyrrolidin-2-one], the IC50 in assay [1] and in assay [2] (setting [3]) was below 0.1 µM in each case.

On to `CN1CC[C@@](O)(c2cccc(-c3nc(-c4ccnc(NC5CC6CC(O)C5C6)n4)cs3)c2)C1=O` (stereo partly drawn) [Example 220], for which the values for the IC50 in assay [1] and in assay [2] (setting [3]) were 0.1 to 0.5 µM and above 0.501 µM, respectively.

`C[C@@H](Nc1nccc(-c2nc(-c3cc([C@]4(O)CCN(C)C4=O)ccn3)cs2)n1)c1ccnn1C` [Example 291, (R)-3-Hydroxy-1-methyl-3-(2-(2-(2-(((R)-1-(1-methyl-1H-pyrazol-5-yl)ethyl)amino)pyrimidin-4-yl)thiazol-4-yl)pyridin-4-yl)pyrrolidin-2-one]: the results for the IC50 in assay [1] and in assay [2] (setting [3]) were below 0.1 µM and 0.1 to 0.5 µM, respectively.

As for `CN1CC[C@@](O)(c2cncc(-c3ccn(-c4ccnc(Nc5cn(CC(F)F)nc5OC5CC5)n4)n3)c2)C1=O` (single isomer, unassigned) [Example 145, (R)-3-(5-(1-(2-((3-cyclopropoxy-1-(2,2-difluoroethyl)-1H-pyrazol-4-yl)amino)pyrimidin-4-yl)-1H-pyrazol-3-yl)pyridin-3-yl)-3-hydroxy-1-methylpyrrolidin-2-one or (S)-3-(5-(1-(2-((3-cyclopropoxy-1-(2,2-difluoroethyl)-1H-pyrazol-4-yl)amino)pyrimidin-4-yl)-1H-pyrazol-3-yl)pyridin-3-yl)-3-hydroxy-1-methylpyrrolidin-2-one], the IC50 in assay [1] and in assay [2] (setting [3]) was below 0.1 µM throughout.

`CN1CC[C@@](O)(c2cccc(-c3nc(-c4ccnc(NCC5CCO5)n4)cs3)c2)C1=O` (stereo partly drawn) [Example 190]: the values for the IC50 in assay [1] and in assay [2] (setting [3]) were 0.1 to 0.5 µM and above 0.501 µM, respectively.

These data come from patent publication US20250304567A1, “PYRROLIDIONE DERIVATIVES AS INHIBITORS OF NF KAPPA B INDUCING KINASE” (priority 2022, published 2025).
